In patent publication US11259522B2, “Control of resistant pests” (priority 2017, dated 2022):
≈ marks a conversion by molar mass, not a printed value. Where “and” joins values, the source holds several entries; their conditions need not be identical. Identical values can stand only once. Like-named read-outs stand apart in the source and are kept apart here.

Tests used:
[1] = system: Rhyzopertha dominica susceptible strain QRD14; assay: Grain protectant bioassay on treated wheat, susceptible lesser grain borer; type: in vivo; details: for 14 day Adult Mortality No. dead/total / F1 Progeny count No. dead/total: Example 8, QQRD14, replicates A, B, C; for Progeny reduction (%): vs untreated control
Text: The experiment of Example 5 was repeated using a laboratory reared susceptible strain QQRD14 of R. dominica and different concentrations of flavesone to determine efficacy.

[2] = system: Rhipicephalus microplus larvae, susceptible non-resistant field strain (NRFS); assay: Larval packet test (LPT), cattle tick larvae, susceptible strain; type: in vivo; details: for LC50 (ppm) / LC99 (ppm): NRFS, Probit analysis; for mortality at 10000 ppm: 10,000 ppm; for mortality at 2.5 ppm: 2.500 ppm; for mortality at 5000 ppm: 5,000 ppm
Method: The larval packet test (LPT) is a modification of that first described by Stone and Haydock (1962, Bull. Entomol. Res., 563-578, http://dx.doi.org/10.1017/5000748530004832X) for evaluation of field resistance in cattle tick (Rhipicephalus microplus) larvae.
The first LPT assay was conducted to identify the potential range of flavesone acaricidal activity against larvae of a susceptible non-resistant field strain (NRFS) of R. microplus as a reference strain using a wide range of concentrations (1 in 10 in series).
The test compound, flavesone, 6-isobutyryl-2,2,4,4-tetramethylcyclohexane-1,3,5-trione, 96.7%, was used. As its volatility/evaporative properties were unknown, the LPT method was modified to incorporate the use of suitably-sized polyethylene plastic sheets to envelop the larval packets, minimizing exposure of the test active to the atmosphere.
In addition, the use of the solvent trichloroethylene (TCE) was removed to avoid the time required for evaporation in the preparation of test papers. The test solutions were prepared in olive oil only at the diluent and the papers immediately enveloped in the plastic sheets and sealed with bulldog clips to minimize evaporation.
A stock solution with a concentration of 100,000 ppm (10%) flavesone was prepared in olive oil as the diluent (1.035 mL flavesone (96.7%) to 8.965 mL olive oil) and then further diluted 1 in 10 in series to also give 10,000 ppm, 1,000 ppm, 100 ppm, 10 ppm and 1 ppm concentration. The negative control was olive oil only. No positive control was included in this experiment. Due to the viscosity of the olive oil, all solutions were prepared using reverse pipetting technique.
Filter papers (75 mm×85 mm Whatman® No. 541), with grid patterns, were impregnated on ½ of the paper with 225 μL of each solution using a micro-pipette and immediately folded in half, enveloped in polyethylene plastic and sealed with 3 bulldog clips. The impregnated papers were kept at room temperature on aluminium trays for a minimum of 60 minutes to allow for dispersal across the grid pattern of the paper prior to aliquoting of larvae. The packets were prepared in duplicate for each concentration, including the negative control.
An 8 dram vial containing approximately 20,000 hatched 7-21 day old NRFS larvae (about 1 g eggs) was opened and set up on a moated tray with a small amount of detergenated water, about 15 to 30 minute before use. Only larvae that migrated to the top of the vial were used in the assay.
Aliquots of approximately 100 larvae were placed into each packet using plastic disposable forceps and the packets resealed and incubated and 27° C. and 85% relative humidity (RH).
After 24 hours, the larval packets were opened and the numbers of dead and live larvae were counted under a magnification lamp. Percentage mortality was calculated and, where applicable, corrected using Abbott's Formula (Abbott, 1925, J. Economic Entomology, 18:256-257): […]
LC50 and LC99 values were determined by Probit mortality vs log concentration analysis. Probit values were derived from “Transformation of Percentages to Probit's Tables” published by Fisher R. A. and Yates F. (1938).
The LPT Assay of Example 1 was repeated using a narrow range of concentrations, 1 in 2 series, of flavesone to determine LC50 and LC99 values against the susceptible NRFS and the multi-resistant Tiaro reference strain.
The stock solution of flavesone (100,000 ppm) was diluted 1 in 10 with olive oil (1 mL to 9 mL diluent) to give 10,000 ppm, which was then further diluted 1 in 2 in series (5 mL to 5 mL diluent) to give 5,000 ppm, 2,500 ppm, 1,250 ppm, 625 ppm, 312.5 ppm and 156.25 ppm concentrations. […]

[3] = system: Cryptolestes ferrugineus strain QCF73 (resistant to phosphine); assay: Grain protectant bioassay on treated wheat, C. ferrugineus resistant; type: in vivo; details: for Progeny reduction (%): vs untreated control
[4] = system: Aedes aegypti Liverpool strain (insecticide susceptible, LVP) L3 larvae; assay: Mosquito larval dose response assay, LVP strain; details: read-out: Lethal Concentration (LC50) LVP Strain
[5] = system: Oryzaephilus surinamensis susceptible strain VOS48; assay: Grain protectant bioassay on treated wheat, O. surinamensis susceptible; type: in vivo; details: for Progeny reduction (%): vs untreated control
[6] = Rhipicephalus microplus, 24 h, Example 2
[7] = Rhipicephalus microplus, 24 h, Example 3
[8] = Rhipicephalus microplus, 48 h, Example 4

With `CC(C)C(=O)C1C(=O)C(C)(C)C(=O)C(C)(C)C1=O` [Flavesone, 1-isobutyroyl-3,3,5,5-tetramethylcyclohexane-2,4,6-trione] the “14 day Adult Mortality No. dead/total” value ([1]; 5 ppm on wheat) was 0/50, the “F1 Progeny count No. dead/total” value ([1]; 5 ppm on wheat) was 4/930 and 4/999 and 1/866 and the “14 day Adult Mortality No. dead/total” value ([1]; 10 ppm on wheat) was 6/50 (2×) and 8/50. For the same compound, the “F1 Progeny count No. dead/total” value ([1]; 10 ppm on wheat) was 3/446 and 0/444 and 3/487, the “14 day Adult Mortality No. dead/total” value ([1]; 25 ppm on wheat) was 50/50 and the “F1 Progeny count No. dead/total” value ([1]; 25 ppm on wheat) was 0/0. For the same compound, the “14 day Adult Mortality No. dead/total” value ([1]; 50 ppm on wheat) was 50/50, the “F1 Progeny count No. dead/total” value ([1]; 50 ppm on wheat) was 0/0 and the “14 day Adult Mortality No. dead/total” value ([1]; 100 ppm on wheat) was 50/50. The “F1 Progeny count No. dead/total” value ([1]; 100 ppm on wheat) was 0/0, the Live adult progeny ([1]; QRD14, 25 mg/kg, mean ± SE) was 0.0 ± 0.0 and the “Progeny reduction (%)” value ([1]; QRD14, 25 mg/kg) was 100%. For the same compound, the Live adult progeny ([1]; QRD14, 60 mg/kg, mean ± SE) was 0.0 ± 0.0, the “Progeny reduction (%)” value ([1]; QRD14, 60 mg/kg) was 100% and the mortality at 25 mg/kg ([1]; Rhyzopertha dominica, 336 h, QRD14, 25 mg/kg, 2 weeks, mean ± SE, read-out: Adult mortality (%)) was 98 ± 1.2%. For the same compound, the mortality at 60 mg/kg ([1]; Rhyzopertha dominica, 336 h, QRD14, 60 mg/kg, 2 weeks, mean ± SE, read-out: Adult mortality (%)) was 100%, the “LC50 (ppm)” value ([2]; Example 1, 24 hours) was 171 ppm and the “LC99 (ppm)” value ([2]; Example 1, 24 hours) was 3346 ppm. For the same compound, the “LC50 (ppm)” value ([2]; Example 2, 24 hours) was 690 ppm, the “LC99 (ppm)” value ([2]; Example 2, 24 hours) was 1109 ppm and the “LC50 (ppm)” value ([2]; Example 3, 24 hours) was 610 ppm. For the same compound, the “LC99 (ppm)” value ([2]; Example 3, 24 hours) was 1050 ppm, the “LC50 (ppm)” value ([2]; Example 4, 48 hours) was 526 ppm and the “LC99 (ppm)” value ([2]; Example 4, 48 hours) was 923 ppm. The mortality at 1 ppm ([2]; Rhipicephalus microplus, 24 h, Example 1, 1 ppm) was 0%, the mortality at 10 ppm ([2]; Rhipicephalus microplus, 24 h, Example 1, 10 ppm) was 0.62% and the mortality at 100 ppm ([2]; Rhipicephalus microplus, 24 h, Example 1, 100 ppm) was 1.82%. The mortality at 1000 ppm ([2]; Rhipicephalus microplus, 24 h, Example 1, 1,000 ppm) was 97%, the mortality at 10000 ppm ([2]; Rhipicephalus microplus, 24 h, Example 1) was 100% and the mortality at 100000 ppm ([2]; Rhipicephalus microplus, 24 h, Example 1, 100,000 ppm) was 100%. It also gave a mortality at 2.5 ppm [2, 6] of 100%, a mortality at 156.25 ppm ([2]; Rhipicephalus microplus, 24 h, Example 2, 156.25 ppm) of 0% and a mortality at 312.5 ppm [2, 6] of 0%. For the same compound, the mortality at 625 ppm [2, 6] was 11.8%, the mortality at 1250 ppm ([2]; Rhipicephalus microplus, 24 h, Example 2, 1,250 ppm) was 100% and the mortality at 5000 ppm [2, 6] was 100%. It also gave a mortality at 10000 ppm [2, 6] of 100%, a mortality at 2.5 ppm [2, 7] of 100% and a mortality at 312.5 ppm [2, 7] of 1.28%. For the same compound, the mortality at 625 ppm [2, 7] was 11.8%, the mortality at 1250 ppm ([2]; Rhipicephalus microplus, 24 h, Example 3, 1,250 ppm) was 100% and the mortality at 5000 ppm [2, 7] was 100%. It also gave a mortality at 312.5 ppm [2, 8] of 2.17%, a mortality at 625 ppm [2, 8] of 66.8% and a mortality at 1250 ppm ([2]; Rhipicephalus microplus, 48 h, Example 4, 1250 ppm) of 100%. The Live adult progeny ([3]; 25 mg/kg, mean ± SE) was 83.7 ± 6.5, the “Progeny reduction (%)” value ([3]; 25 mg/kg) was 75.7% and the “Progeny reduction (%)” value ([3]; 25 mg/kg, listed as flavesone) was ~75%. The Live adult progeny ([3]; 60 mg/kg, mean ± SE) was 0.0 ± 0.0, the “Progeny reduction (%)” value ([3]; 60 mg/kg) was 100% and the mortality at 25 mg/kg ([3]; Cryptolestes ferrugineus, 336 h, 25 mg/kg, 2 weeks, mean ± SE, read-out: Adult mortality (%)) was 3.3 ± 1.3%. The mortality at 60 mg/kg ([3]; Cryptolestes ferrugineus, 336 h, 60 mg/kg, 2 weeks, mean ± SE, read-out: Adult mortality (%)) was 62%, the LC50 ([4]; 24 h) was 40.9 mg/L (≈ 162 µM) and the LC50 ([4]; 48 h) was 40.5 mg/L (≈ 161 µM). For the same compound, the LC50 ([4]; 72 h) was 39.7 mg/L (≈ 157 µM), the “Adult mortality (%)” value ([5]; 25 mg/kg, 2 weeks, mean ± SE) was 22.7 ± 2.4% and the Live adult progeny ([5]; 25 mg/kg, mean ± SE) was 1.3 ± 0.7. For the same compound, the “Progeny reduction (%)” value ([5]; 25 mg/kg) was 99.6%, the “Adult mortality (%)” value ([5]; 60 mg/kg, 2 weeks, mean ± SE) was 91.3 ± 5.9% and the Live adult progeny ([5]; 60 mg/kg, mean ± SE) was 0.0 ± 0.0. For the same compound, the “Progeny reduction (%)” value ([5]; 60 mg/kg) was 100%, the mortality at 25 mg/kg ([5]; Oryzaephilus surinamensis, 336 h, 25 mg/kg, 2 weeks, mean ± SE, read-out: Adult mortality (%)) was 22% and the mortality at 60 mg/kg ([5]; Oryzaephilus surinamensis, 336 h, 60 mg/kg, 2 weeks, mean ± SE, read-out: Adult mortality (%)) was 91%.
